Tested on in the first series: not listed separately
As to the kind of experiment: Inhibition of recombinant Plasmodium falciparum PKG using FAM-PKAtide as substrate preincubated for 15 mins followed by substrate addition and measured after 1 hr by IMAP fluorescence polarization assay.
Conditions: not given; call rule not given here
Broadly, the IC50 is the concentration needed to halve the response being measured. `Cc1onc(-c2cccc(Cl)c2)c1-c1ccnc(N[C@@H]2CCN(C(=O)c3cnoc3)C2)n1`: the half-inhibitory concentration (IC50) is 210 nM.
For `O=C(c1cnoc1)N1CC[C@@H](Nc2nccc(-c3c(-c4ccccc4)noc3CO)n2)C1`, the IC50 stood at 1000 nM.
On to `CCN(CC)Cc1onc(-c2cccc(Cl)c2)c1-c1ccnc(N[C@@H]2CCN(C(=O)c3cnoc3)C2)n1`, for which the IC50 was 13 nM.
Same read-out and setting: to `CCN(CC)Cc1onc(-c2cccc(Cl)c2)c1-c1ccnc(N[C@@H]2CCN(C(=O)c3ccon3)C2)n1` belongs 25 nM; to `Cc1onc(-c2ccc(Cl)cc2)c1-c1ccnc(N[C@@H]2CCN(C(=O)c3cnoc3)C2)n1`, 2800 nM.
Consider `O=C(c1cnoc1)N1CC[C@@H](Nc2nccc(-c3c(-c4ccccc4)noc3CN3CCCC3)n2)C1`, for which the IC50 was 1400 nM.
In the case of `Cc1onc(-c2ccccc2)c1-c1ccnc(N[C@@H]2CCN(C(=O)c3cnccn3)C2)n1`, the IC50 is 2000 nM.
As to `Cc1onc(-c2ccccc2)c1-c1ccnc(N[C@@H]2CCN(C(=O)c3cnoc3)C2)n1`, the IC50 was 750 nM.
As to `CCN(CC)Cc1onc(-c2cccc(Cl)c2)c1-c1ccnc(N2CC(C(=O)c3ccsn3)C2)n1`, the IC50 stood at 2600 nM.
As for `CCN(CC)Cc1onc(-c2cccc(Cl)c2)c1-c1ccnc(N[C@@H]2CCN(C(=O)c3cn[nH]c3)C2)n1`, the IC50 was determined as 97 nM.
Take `CCN(CC)Cc1onc(-c2cccc(Cl)c2)c1-c1ccnc(N[C@@H]2CCN(C(=O)c3ccn(C)n3)C2)n1`: the IC50 turned out to be 10 nM.
As for `CCN(CC)Cc1onc(-c2cccc(Cl)c2)c1-c1ccnc(N[C@@H]2CCN(C(=O)c3cnn(C)c3)C2)n1`, the concentration for half-maximal inhibition (IC50) was found to be 38 nM.
Take `CCN(CC)Cc1onc(-c2cccc(Cl)c2)c1-c1ccnc(N[C@@H]2CCN(C(=O)c3nc[nH]n3)C2)n1`: the IC50 was found to be 620 nM.
As for `CCN(CC)Cc1onc(-c2cccc(Cl)c2)c1-c1ccnc(N[C@@H]2CCN(C(=O)c3c[nH]cn3)C2)n1`, the IC50 came out at 47 nM.
On the same count and under the same terms, the figure for `CCN(CC)Cc1onc(-c2cccc(Cl)c2)c1-c1ccnc(N[C@@H]2CCN(C(=O)c3cnsc3)C2)n1` is 74 nM; for `O=C(c1cnoc1)N1CC[C@@H](Nc2nccc(-c3c(-c4ccccc4)noc3CN3CCOCC3)n2)C1` it is 1000 nM.
`CCN(CC)Cc1onc(-c2ccc(F)cc2)c1-c1ccnc(N[C@@H]2CCN(C(=O)c3cnoc3)C2)n1`: the IC50 came to 660 nM.
Regarding `Cc1onc(-c2ccccc2)c1-c1ccnc(N[C@@H]2CCN(C(=O)c3cccnc3)C2)n1`, the concentration for half-maximal inhibition (IC50) is 1000 nM.
Still for that read-out and setting: the figure for `CCN(CC)Cc1onc(-c2ccccc2)c1-c1ccnc(N[C@@H]2CCN(C(=O)c3cnoc3)C2)n1` is 850 nM; for `CCN(CC)Cc1onc(-c2cccc(Cl)c2)c1-c1ccnc(N[C@@H]2CCN(C(=O)c3ccsn3)C2)n1` it is 15 nM; for `CCN(CC)Cc1onc(-c2cccc(F)c2)c1-c1ccnc(N[C@@H]2CCN(C(=O)c3cnoc3)C2)n1` it is 360 nM.
Regarding `Cc1onc(-c2ccccc2Cl)c1-c1ccnc(N[C@@H]2CCN(C(=O)c3cnoc3)C2)n1`, the IC50 was 2100 nM.
For the molecule `CCN(CC)Cc1onc(-c2cccc(Cl)c2)c1-c1ccnc(N[C@@H]2CCN(C(=O)c3cc[nH]n3)C2)n1`, the IC50 came to 120 nM.
For `CCN(CC)Cc1onc(-c2ccccc2F)c1-c1ccnc(N[C@@H]2CCN(C(=O)c3cnoc3)C2)n1`, the IC50 was 900 nM.

A further series has as its system Plasmodium falciparum. As to the kind of experiment: Inhibition of recombinant Plasmodium falciparum PKG using FAM-PKAtide as substrate at 10 uM preincubated for 15 mins followed by substrate addition and measured after 1 hr by IMAP fluorescence polarization assay relative to control. As to conditions: time 75.0 min. For orientation: Polarisation of emitted light reports the rotation of a fluorescent probe.
What is called inhibition is the change of the read-out against control, counted positive when it falls. In the case of `CCN(CC)Cc1onc(-c2cccc(Cl)c2)c1-c1ccnc(N[C@@H]2CCN(Cc3ccn(C)n3)C2)n1`, the inhibition is 5%.
Turning to `CCN(CC)Cc1onc(-c2cccc(Cl)c2)c1-c1ccnc(N2CCCC2CC(=O)c2ccsn2)n1` (racemic), the inhibition turned out to be 60%.
On to `CCN(CC)Cc1onc(-c2cccc(Cl)c2)c1-c1ccnc(N2CCCC(C(=O)c3ccsn3)C2)n1` (racemic), for which the inhibition stood at 75%.
As to `CCN(CC)Cc1onc(-c2cccc(Cl)c2)c1-c1ccnc(N[C@@H]2CCN(S(=O)(=O)c3cnn(C)c3)C2)n1`, the inhibition came out at 40%.
Take `CCOC(=O)c1onc(-c2ccccc2)c1-c1ccnc(N[C@@H]2CCN(C(=O)c3cnoc3)C2)n1`: the inhibition was 23%.
For the molecule `CCN(CC)Cc1onc(-c2cccc(Cl)c2)c1-c1ccnc(N[C@@H]2CCN(Cc3cnn(C)c3)C2)n1`, the inhibition turned out to be 5%.
With `CCN(CC)Cc1onc(-c2cccc(Cl)c2)c1-c1ccnc(N2CCC(C(=O)c3ccsn3)CC2)n1`, the inhibition was 46%.
On to `O=C(c1cnoc1)N1CC[C@H](Nc2nccc(-c3c(-c4ccccc4)noc3CO)n2)C1`, for which the inhibition was 60%.

Tested on in a further series: not listed separately
As to the kind of experiment: Inhibition of human PKG measured up to 10 uM.
Conditions: not given
For the molecule `Cc1onc(-c2cccc(Cl)c2)c1-c1ccnc(N[C@@H]2CCN(C(=O)c3cnoc3)C2)n1`, the “inhibition (INH)” value is reported as “Not Active”.
Same read-out and setting: to `CCN(CC)Cc1onc(-c2ccccc2)c1-c1ccnc(N[C@@H]2CCN(C(=O)c3cnoc3)C2)n1` belongs “Not Active”.
